In patent US20240197715A1, “PHARMACEUTICAL COMBINATIONS AND USES THEREOF” (NOVARTIS AG, priority 2022, published 2024):

Assays:
[1] = system: SW48 colorectal carcinoma cells; assay: SW48 xenograft efficacy in nude mice; assay type: in vivo; conditions: for effect on tumor growth: irinotecan 60 mg/kg i.v. weekly
Description: All animals were allowed to adapt for 7 days and housed in a pathogen-controlled environment (5 mice/Type III cage) with access to food and water ad libitum and were identified with transponders.
5.0×10^6 SW48 colorectal carcinoma cells were implanted subcutaneously in nude mice (Charles River, Germany). Treatment was initiated when tumors reached 150-200 mm^3 volume. Efficacy studies and tumor response were measured as above.

[2] = system: SW620 (CCL-227, ATCC) MSS colorectal carcinoma xenografts; assay: SW620 MSS CRC xenograft efficacy in nude mice; assay type: in vivo; conditions: for effect on tumor growth of parental SW620 tumors: irinotecan 15 mg/kg i.v. once weekly, Compound A 120 mg/kg p.o. daily
Description: SW620 (CCL-227, ATCC) [MSS colorectal carcinoma (CRC)] was cultured in DMEM (#1-26F01-I, AMIMED) supplemented with 10% FCS (#2-0-1F30-I, BioConcept), 4 mM L-glutamine (#5-10K50-H, BioConcept) and 1 mM Sodium pyruvate (#5-60F00-H, BioConcept). Cells were passaged by washing first with Dulbecco's PBS without Ca^2+/Mg^2+ (#3-05F29-1, AMIMED), trypsinising cells with Trypsin 0.05% in PBS with EDTA (#5-51F00-H, AMIMED), centrifuging in the respective culture media, and splitting cells into fresh media at a ratio of 1:8, 2 times per week.
Athymic nude mice (Charles River, Germany) were allowed to adapt for 7 days upon arrival at the animal facility and housed in a pathogen-controlled environment (5 mice/Type III cage) with access to food and water ad libitum. Animals were identified with transponders. Studies described in this report were performed according to procedures covered by a permit number issued by the Kantonales Veterinäramt Basel-Stadt.
Subcutaneous tumors were initiated by injecting 5.0×10^6 SW620 tumor cells in 50% Matrigel (#354234, Corning) in HBSS (#H6648, SIGMA) in the right flank of nude mice. The efficacy experiment (n=6), started 11 days post-cell injection.
Compound A and Temozolomide were made-up fresh on a weekly basis and kept at 4° C. and protected from light. Compound A was dissolved in 20% Hydroxypropyl-ß-Cyclodextrine (HP-ß-CD, #H107-100G, SIGMA) in UltraPure™ Water (#10977-035, Invitrogen) and administered p.o. at 10 ml/kg. Temozolomide was dissolved in 30% PEG-400 (#202398-500G, SIGMA) and 70% Dulbecco's PBS without Ca^2+/Mg^2+ (#3-05F29-1, AMIMED) and administered p.o. at 10 mL/kg on 5 consecutive days within a 21 days cycle. Irinotecan was made-up fresh for each treatment once a week by diluting with NaCl 0.9% (#3-06S00-I, BioConcept). The solution was administered i.v. at 5 mL/kg.
Tumor volumes (TVol), determined from caliper measurements (using the formula I*w2*π/6) were measured two times per week. Tumor response was quantified by the change in tumor volume (endpoint minus starting value in mm^3) as the T/C (the ratio between the tumor volume in the treated group and in the untreated control group). In the case of a tumor regression or to assess the percentage of change in TVol, the tumor response was quantified by the percentage of regression of the starting TVol. The body-weight (BW) of the animal was measured three times per week allowing calculation at any particular time-point relative to the day of initiation of treatment (day 0) of the percentage change in BW (4% BW).
At day 43 post-cell injection, irinotecan was administered intravenously at 15 mg/kg once weekly for 7 weeks in combination with Compound A, also administered from day 43, orally at 120 mg/kg daily for 52 days.
Starting 11 days post-cell injection, temozolomide was administered orally on a 21 day cycle of 5 consecutive days at 100 mg/kg on 5 consecutive days (day 11 to day 15 and day 32 to day 36). At day 43 post-cell injection, to the first group irinotecan was administered intravenously at 15 mg/kg once weekly for 6 weeks, and to the second group irinotecan was administered intravenously at 15 mg/kg once weekly for 6 weeks in combination with Compound A, also administered from day 43, orally at 120 mg/kg daily for 46 days.

[3] = Example 12, Compound A 40 mg/kg p.o. qd, trametinib 0.3 mg/kg p.o. qd
[4] = Example 18, Compound A 20 mg/kg p.o. qd

Structure (SMILES) | duration of response / relapse [1, 3] | tumor regression [1, 3] [%] | tumor regression ([1]; Example 15, Compound A 20 mg/kg p.o. qd, BAY-1895344 50 mg/kg p.o. twice a day, 3 days on/4 off) [%] | duration of response / relapse ([1]; Example 15, Compound A 20 mg/kg, BAY-1895344 50 mg/kg) | effect on tumor growth [1, 4] | duration of response / relapse ([1]; Example 18, Compound A 20 mg/kg, irinotecan 60 mg/kg) | outcome after stopping temozolomide and irinotecan on day 129 ([2]; SW620, all treatments stopped vs still treated with compound A only) | effect on tumor growth of parental SW620 tumors [2] | relapse of TMZ pre-treated SW620 tumors ([2]; after 2 cycles TMZ, treatment from day 43)
CCc1c(N2CCN(C(=O)c3ncnc(C)c3O)CC2)c(=O)n2nc(C3=CCOCC3)nc2n1CC(=O)Nc1ccc(C(F)(F)F)cc1Cl [Compound A] | for 30 days followed by relapse in all tumor-bearing mice | 40 | 15 | for 30 days followed by relapse in all tumor-bearing mice | stable disease | for 21 days followed by a relapse in all tumor-bearing mice | remained below 50% tumor regression | delay of the tumor growth | –
CCc1c2c(nc3ccc(OC(=O)N4CCC(N5CCCCC5)CC4)cc13)-c1cc3c(c(=O)n1C2)COC(=O)[C@]3(O)CC [irinotecan] | – | – | – | – | no effect | – | – | delay of the tumor growth | the tumors relapsed
